Assay results reported in patent publication US4444767A, “Derivatives of 3-amino-pregn-5-ene” (Roussel Uclaf, priority 1981, dated 1984).
Structures can show the parent of a compound that is named as a salt.

Experiments:
[1] = system: immunitary systems; assay: Test of Rosettes to sheep red corpuscles; type: in vivo; settings: Rattus norvegicus, Splenocyte; 3 month old male rats, oral daily from day -1 to day 1; splenocytes after 7 days; read-out: immunostimulating dose (dose which multiplies by 2 the percentage of rosettes observed in the control animals)
Method: The administration to animals of a product capable of stimulating the immunitary systems leads to an increase of their capacity of reaction to the injection of a immunogenic product. 3 month old male rats were sensitized by intraperitoneal administration of sheep erythrocytoes on day 0 and 7 days later, the spleen was removed and splenocytes were placed in contact with sheep erythrocytes. The percentage of leucocytes around which the erythrocytes were in the form of rosettes was determined. The test compounds were orally administered daily from day-1 to day 1 and immunostimulating dose is the dose of product which multiplies by 2 the percentage of rosettes observed in the control animals.

[2] = system: mice; assay: Acute toxicity; type: in vivo; settings: oral

SMILES | ED (2-fold rosettes) [1] [mg/kg] | LD0 (maximum dose which did not cause any mortality after 8 days) [2] [mg/kg]
CC(=O)[C@H]1CC[C@H]2[C@@H]3CC=C4C[C@H](NC(=O)[C@H](C)N)CC[C@]4(C)[C@H]3CC[C@]12C [Example 3, (2S)-2-amino-N-(20-oxopregn-5-ene 3α-yl)propionamide hydrochloride] | 2 | > 400
C[C@H](O)[C@H]1CC[C@H]2[C@@H]3CC=C4C[C@H](NC(=O)CN)CC[C@]4(C)[C@H]3CC[C@]12C.Cl [Example 6, 2-amino-N-[(20S) 20-hydroxy-pregn-5-ene-3α-yl]-acetamide hydrochloride] | – | > 400
CC(=O)[C@H]1CC[C@H]2[C@@H]3CC=C4C[C@H](NC(=O)CN)CC[C@]4(C)[C@H]3CC[C@]12C [Example 4, 2-amino N-(20 oxopregn-5-ene 3α-yl) acetamide hydrochloride] | 5 | 600
